Source: ChEMBL document CHEMBL3870364, “Discovery of Spirocyclic Aldosterone Synthase Inhibitors as Potential Treatments for Resistant Hypertension” (ACS Med Chem Lett, 2017)
≈ marks a conversion by molar mass, not a printed value.

Tests used:
[1] = Lipophilicity, logD of compound by HPLC analysis; type: physicochemical
[2] = target: T1, Cytochrome P450 11B2, mitochondrial (Homo sapiens, UniProt P19099); assay: Inhibition of human CYP11B2-CLE9 expressed in chinese hamster V79 cells using 11-deoxycorticosterone as substrate preincubated for 1 hr followed by substrate addition measured for 3 hrs by HTRF assay; type: cell-based
T1 sequence (P19099 whole entry): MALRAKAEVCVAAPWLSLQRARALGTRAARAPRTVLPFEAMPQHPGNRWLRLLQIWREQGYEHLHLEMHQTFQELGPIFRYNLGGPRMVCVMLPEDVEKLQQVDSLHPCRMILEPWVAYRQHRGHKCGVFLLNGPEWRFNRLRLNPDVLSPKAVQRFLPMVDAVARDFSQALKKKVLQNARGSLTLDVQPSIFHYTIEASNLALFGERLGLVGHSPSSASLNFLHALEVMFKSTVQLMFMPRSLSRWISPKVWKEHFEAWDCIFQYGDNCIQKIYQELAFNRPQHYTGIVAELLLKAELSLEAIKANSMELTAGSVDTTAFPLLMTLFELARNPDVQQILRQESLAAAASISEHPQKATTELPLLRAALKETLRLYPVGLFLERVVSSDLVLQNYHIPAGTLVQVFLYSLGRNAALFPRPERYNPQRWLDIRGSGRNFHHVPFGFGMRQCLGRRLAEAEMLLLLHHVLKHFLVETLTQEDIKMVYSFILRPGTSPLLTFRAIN

[3] = target: T2, Cytochrome P450 11B1, mitochondrial (Homo sapiens, UniProt P15538); assay: Inhibition of human CYP11B1-8C7 expressed in chinese hamster V79 cells using 11-deoxycortisol as substrate preincubated for 1 hr followed by substrate addition measured for 3 hrs by HTRF assay; type: ADME, cell-based
T2 sequence (P15538 whole entry): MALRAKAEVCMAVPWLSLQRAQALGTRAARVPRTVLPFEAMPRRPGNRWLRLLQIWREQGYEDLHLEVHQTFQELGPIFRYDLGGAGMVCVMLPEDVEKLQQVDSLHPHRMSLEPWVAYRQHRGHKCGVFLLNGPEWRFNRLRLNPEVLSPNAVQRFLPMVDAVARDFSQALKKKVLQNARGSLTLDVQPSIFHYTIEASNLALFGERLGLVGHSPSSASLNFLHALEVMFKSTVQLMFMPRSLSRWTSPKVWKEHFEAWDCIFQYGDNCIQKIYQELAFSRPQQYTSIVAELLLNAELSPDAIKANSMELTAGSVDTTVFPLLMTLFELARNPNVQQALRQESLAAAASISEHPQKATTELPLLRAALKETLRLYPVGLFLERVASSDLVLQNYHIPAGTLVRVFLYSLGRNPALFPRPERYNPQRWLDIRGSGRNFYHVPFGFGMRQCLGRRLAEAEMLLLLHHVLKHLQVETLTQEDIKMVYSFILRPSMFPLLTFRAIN

CYP11B1 / CYP11B2 = assay: Selectivity ratio of IC50 for human CYP11B1-8C7 expressed in chinese hamster V79 cells to IC50 for human CYP11B2-CLE9 expressed in chinese hamster V79 cells; type: ADME, cell-based; settings: read-out: Ratio IC50
[4] = Solubility of the compound in PBS buffer at pH 2; type: physicochemical
[5] = Solubility of the compound in PBS buffer at pH 7; type: physicochemical
[6] = Intrinsic clearance in Sprague-Dawley rat liver microsomes at 0.3 mM preincubated for 10 mins followed by NADPH addition measured up to 45 mins by LC/MS analysis; type: ADME; settings: read-out: CLH
[7] = Ratio of IC50 for human CYP17 expressed in African green monkey COS7 cells to IC50 for human CYP11B2-CLE9 expressed in chinese hamster V79 cells; design: species or system COS-7
[8] = Ratio of IC50 for CYP19A1 (unknown origin) to IC50 for human CYP11B2-CLE9 expressed in chinese hamster V79 cells
[9] = Ratio of IC50 for CYP21 (unknown origin) to IC50 for human CYP11B2-CLE9 expressed in chinese hamster V79 cells
[10] = Oral bioavailability in Sprague-Dawley rat at 2 mg/kg administered via gavage by LC-MS/MS analysis; type: ADME, organism-based; settings: in vivo
[11] = Dose normalized AUC in Sprague-Dawley rat at 2 mg/kg administered via oral gavage by LC-MS/MS analysis; type: ADME, organism-based; settings: in vivo
[12] = Clearance in Sprague-Dawley rat plasma at 1 mg/kg, iv or 2 mg/kg administered via oral gavage by LC-MS/MS analysis; type: ADME, organism-based
[13] = Half life in Sprague-Dawley rat plasma at 1 mg/kg, iv or 2 mg/kg administered via oral gavage by LC-MS/MS analysis; type: ADME, organism-based
[14] = Oral bioavailability in Sprague-Dawley rat at 1 mg/kg administered via gavage by LC-MS/MS analysis; type: ADME, organism-based; settings: in vivo
[15] = Dose normalized AUC in Sprague-Dawley rat at 1 mg/kg administered via oral gavage by LC-MS/MS analysis; type: ADME, organism-based; settings: in vivo
[16] = Clearance in Sprague-Dawley rat plasma at 0.5 mg/kg, iv or 1 mg/kg administered via oral gavage by LC-MS/MS analysis; type: ADME, organism-based
[17] = Half life in Sprague-Dawley rat plasma at 0.5 mg/kg, iv or 1 mg/kg administered via oral gavage by LC-MS/MS analysis; type: ADME, organism-based

IC50 [2] [nM] | IC50 [3] [nM] | CLint scaled at 300 µM [6] [mL/min/kg] | SMILES | selectivity ratio (CYP11B1 / CYP11B2) | also measured
13 | 387 | < 20 | c1ccc2c(N3CCC4(CCOC4)CC3)cncc2c1 | 24 | logD [1]: 2.6; solubility [4]: 196 µM (≈ 52.6 µg/mL); solubility [5]: 165 µM (≈ 44.3 µg/mL)
73 | 2190 | – | CC1(C)CN(c2cncc(N3CCC4(CCC(=O)N4)CC3)n2)C1 | 30 | –
42 | 1590 | – | c1ccc2c(N3CCC4(CC3)COC4)cncc2c1 | 37 | –
448 | 10000 | – | CN1CC2(CCN(c3cncc([C@@](C)(O)C(F)(F)F)c3)CC2)CC1=O | > 22 | –
106 | 1670 | 1290 | c1ccc2c(N3CCC4(CCCC4)CC3)cncc2c1 | 16 | logD [1]: 5.6; solubility [4]: 176 µM (≈ 46.9 µg/mL); solubility [5]: 3 µM (≈ 0.799 µg/mL)
704 | 787 | – | c1ccc2c(N3CCC4(CCCO4)CC3)cncc2c1 | 1 | –
228 | 2000 | 76 | CN1CC2(CCN(c3cncc4ccccc34)CC2)CC1=O | 9 | logD [1]: 1.6; solubility [4]: 149 µM (≈ 44 µg/mL); solubility [5]: 167 µM (≈ 49.3 µg/mL)
554 | 1570 | – | c1ccc2c(N3CCC4(CCCCC4)CC3)cncc2c1 | 3 | –
1130 | > 8000 | – | CC(C)(C)OC(=O)N1CCC2(CCN(c3cncc4ccccc34)CC2)C1 | > 7 | –
34 | 1740 | – | CC1(C)CN(c2cncc(N3CCC4(CC3)CNC(=O)C4)n2)C1 | 51 | –
32 | 1540 | < 20 | CN1CC2(CCN(c3cncc([C@](C)(O)C(F)(F)F)c3)CC2)CC1=O | 49 | Ratio IC50 [7]: >200; Ratio IC50 [8]: >200; Ratio IC50 [9]: >200; bioavailability [10]: 91%; AUC/dose [11]: 2.15 µM·kg·h/mg; clearance [12]: 24 mL/min/kg; half-life [13]: 72 min
> 8000 | > 8000 | – | CN1CCC2(CCN(c3cncc4ccccc34)CC2)C1=O | – | –
13 | 355 | < 20 | C[C@](O)(c1cncc(N2CCC3(CCOC3)CC2)c1)C(F)(F)F | 28 | bioavailability [14]: 100%; AUC/dose [15]: 0.85 µM·kg·h/mg; clearance [16]: 36 mL/min/kg; half-life [17]: 30 min
1030 | 1000 | – | CC(=O)N1CCC2(CCN(c3cncc4ccccc34)CC2)C1 | 1 | –
94 | 4460 | – | CN1CC2(CCN(c3cncc(N4CC(C)(C)C4)n3)CC2)CC1=O | 47 | –

SMILES | IC50 [2] [nM] | IC50 [3] [nM] | CLint scaled at 300 µM [6] [mL/min/kg] | selectivity ratio (CYP11B1 / CYP11B2) | also measured
c1ccc2c(N3CCC4(CCNC4)CC3)cncc2c1 | > 10000 | 1310 | – | < 1 | –
